Results published in article PMC6017976, “Enzyme Kinetics and Molecular Docking Studies on Cytochrome 2B6, 2C19, 2E1, and 3A4 Activities by Sauchinone” (Molecules : A Journal of Synthetic Chemistry and Natural …, 2018).

How the values were obtained:
CYP2C19 = target: T1, CYP2C19 (Homo sapiens, UniProt P33261); assay: Reversible inhibition (RI) of CYP2C19 activity in HLMs (cocktail probe assay); type: in vitro ADME; conditions: S-mephenytoin hydroxylation, 100 μM S-mephenytoin, 30 min incubation
T1 construct: pooled human liver microsomes from a mixed pool of 50 donors; tissue BD Gentest Co. 452156; host or cells: human liver microsomes, pool of 50 donors
T1 sequence (P33261 whole entry): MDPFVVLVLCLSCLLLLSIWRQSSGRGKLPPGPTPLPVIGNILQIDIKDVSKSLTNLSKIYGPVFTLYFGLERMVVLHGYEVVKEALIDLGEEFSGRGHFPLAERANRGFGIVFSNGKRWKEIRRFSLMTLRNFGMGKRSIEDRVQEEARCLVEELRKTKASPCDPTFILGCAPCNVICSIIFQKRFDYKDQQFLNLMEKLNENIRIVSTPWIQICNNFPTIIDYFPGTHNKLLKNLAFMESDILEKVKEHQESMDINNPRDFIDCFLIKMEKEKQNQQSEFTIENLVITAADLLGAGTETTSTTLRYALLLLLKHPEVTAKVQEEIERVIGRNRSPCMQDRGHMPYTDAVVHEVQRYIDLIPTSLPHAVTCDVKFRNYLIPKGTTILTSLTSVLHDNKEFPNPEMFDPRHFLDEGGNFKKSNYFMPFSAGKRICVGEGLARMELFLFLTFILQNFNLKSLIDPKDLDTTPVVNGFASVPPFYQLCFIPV

[1] = male, ICR, mouse, in vivo
Experimental: (§1) For analysis of sibutramine, a mobile phase was made, consisting of 10 mM ammonium acetate adjusted to pH 4 with acetic acid: acetonitrile (94:6, v/v) and was eluted at 0.2 mL/min. […] Other parameters of mass spectrometers were the same as those used for analysis of metabolites of CYP substrates.
(§2) Male ICR mice (5 weeks old, weight of 20–25 g) were purchased from the Charles River Company Korea (Orient, Seoul, Korea). […] They were provided free access to food and water. These mice were allowed to acclimate to these conditions for three days prior to inclusion in the experiments.
(§3) Surgical procedures for mice were conducted under tiletamine HCl and zolazepam HCl anesthesia by intramuscular injection. The carotid artery (for blood sampling) cannulation was carried out using catheters (BASi, West Lafayette, IN, USA). Drug administration and blood sampling were performed at 5 h after surgery [55]. […] Other procedures were the same as those used for the sibutramine pharmacokinetic study.
(§4) AUC was calculated using the trapezoidal rule method. Standard methods [56] were used to calculate pharmacokinetic parameters using non-compartmental analysis (WinNonlin 2.1; Pharmasight Corp., Mountain View, CA, USA). Cmax and Tmax were read reversibly from extrapolated data.

in vivo = conditions: male, ICR, mouse
Experimental: as §1, §2, §3, §4

Compound | IC50 (CYP2C19) | AUC greater with sauchinone than drug alone (by %) [1] | CL/F slower with sauchinone than drug alone (by %) [1] | Cmax higher with sauchinone than drug alone (by %) [1] | t1/2 smaller with sauchinone than drug alone (by %) [1] | CL/F (in vivo) | Tmax (in vivo) | half-life (in vivo) | CL/F (in vivo; po) | Tmax (in vivo; po) | half-life (in vivo; po)
COc1ccc2[nH]c([S+]([O-])Cc3ncc(C)c(OC)c3C)nc2c1 (centres unmarked) [omeprazole, reference compound] | 6.59 µM |  |  |  |  |  |  |  |  |  | 
COC(=O)[C@H](c1ccccc1Cl)N1CCc2sccc2C1 [Clopidogrel, clopidogrel] |  | 31.0% | 24.7% | 17.3% | 19.1% | 3.81 ± 0.514 mL/min/kg | 0.25 h | 2.18 ± 0.112 h | 2.87 ± 0.225 mL/min/kg | 0.25 h | 1.77 ± 0.427 h
